The text below walks through data of the METLIN SMRT retention time set (Domingo-Almenara et al. 2019).

The nature of the data set: gradient 5% acetonitrile 3 min, to 50% in 2 min, to 85% in 15 min, held 3 min, 100 µL/min. Conditions: column: Zorbax Extend-C18 2.1 x 50 mm; eluents: water / acetonitrile, 0.1% formic acid. The gist of the method:
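The mobile phases were water and acetonitrile, each with 0.1% formic acid, pumped at 100 μL/min through a Zorbax Extend-C18 column (2.1 × 50 mm, 1.8 μm). Pure standards were injected as mixtures of ~100 molecules and detected by a quadrupole time-of-flight mass spectrometer in positive and negative ionization mode. Retention time came from computationally picked adduct peaks, each inspected by hand.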
In the case of `COCCc1nncn1C1CCN(C(=O)c2ccccc2OC(F)(F)F)CC1`, the RP-LC retention time was 646 s. The same measure for `O=C(CN1CCC(COCc2ccccc2)CC1)NCc1ccco1`: 571 s; for `CC1CCN(S(=O)(=O)N2CCCC(C(=O)Nc3ccccc3C(=O)c3ccccc3)C2)CC1` (stereo not given): 963 s. As for `O=C(CCCn1c(=O)c2cccn2c2ccc(Br)cc21)NCc1ccc2c(c1)OCO2`, the figure is 915 s.

As for `Cc1ccc(-c2nc(C3CC(=O)N(c4ccc(F)cc4)C3)no2)cc1` (stereo not given), the RP-LC retention time was 1030 s. As for `CCNC(=O)c1nn(-c2ccc(OC)c(OC)c2)c(OC)cc1=O`, the figure is 626 s; as for `O=C(NCc1ccccc1Cl)C1CCN(c2nnc(-c3ccccc3)o2)CC1`, 847 s; as for `C=C(C)CN1CC[C@]23c4c5ccc(O)c4O[C@H]2c2[nH]c4ccccc4c2C[C@@]3(O)C1C5`, 703 s.

In the case of `CNC(=O)N1CC2(CCCCC2)CC1COCc1ccccc1` (stereo not given), the RP-LC retention time came to 1060 s. As for `Cc1ccc(C)c(Cn2nc3ccc(S(=O)(=O)N4CCc5ccccc5C4)cn3c2=O)c1`, the figure is 1100 s; as for `Cc1nc(-c2ccc(F)cc2)sc1C(=O)N1CCC(C(C)C(=O)N2CCOCC2)CC1` (stereo not given), 745 s; as for `CC(C)COc1nc2c(c(=O)n(C)c(=O)n2C)n1C`, 865 s. Molecule `Cc1cccc(NC(=O)NCC2CCOCC2)c1C` displayed an RP-LC retention time of 704 s. Regarding `Cc1noc([C@@H]2CN(C(=O)c3cn[nH]c3)C[C@H]2C(N)=O)n1`, the RP-LC retention time amounted to 536 s.

For `O=C(NCCN1CCOCC1)C1CCCN(c2nccnc2Sc2ccccc2)C1` (stereo not given), the RP-LC retention time amounted to 652 s.

As to `COc1ccc(OC)c(NC(=O)N(C)CCc2noc(COc3ccccc3)n2)c1`, the RP-LC retention time was 936 s. In the case of `COCCn1nc2n(c1=O)CCN(C(=O)C1(c3ccccc3)CCCC1)CC2`, the RP-LC retention time was 730 s.

Molecule `Cc1cccc(C(=O)NC(C)C(=O)Nc2nc3ccccc3[nH]2)c1` (stereo not given) had an RP-LC retention time of 648 s. As for `Cc1ccc(NC(=O)C2CCN(S(C)(=O)=O)c3cc(Cl)ccc3O2)cc1C` (stereo not given), the figure is 1090 s.

For `CCn1c(=O)n(CC)c2cc(S(=O)(=O)c3ccc(C)cc3)c(NC(C)=O)cc21`, the RP-LC retention time was 759 s. As for `O=C(NCc1cc(-c2ccc3c(c2)OCCO3)on1)c1ccc2nsnc2c1`, the figure is 788 s. `Cc1ccc(C)c(NC(=O)Cn2ccc3ccn(C)c3c2=O)c1` came in with an RP-LC retention time of 784 s.

In turn, `CC(CNC(=O)C1CCCN1S(=O)(=O)c1cc2c(cc1Cl)NC(=O)CO2)c1ccccc1` (stereo not given) registered an RP-LC retention time of 834 s.

`COc1ccc(CC(C)(O)CNC(=O)c2cc(C)oc2C)cc1` (stereo not given): the RP-LC retention time is 739 s.

`CCOc1ccc(C(=O)NC2CCN(c3cc(-c4cccs4)[nH]n3)C2)cc1` (stereo not given): the RP-LC retention time was found to be 658 s. On to `COc1ncc(C(=O)N2CCCC2)cn1`, for which the RP-LC retention time was 589 s. As for `Cc1nc(-c2noc(-c3ccccc3)n2)cn1CC(=O)NCc1ccc(F)cc1F`, the figure is 838 s.

`O=C(O)c1ccc(Nc2c(-c3cccc(Br)c3)nc3cnccn23)cc1` showed an RP-LC retention time of 736 s. The same measure for `CCCCN(C)C(=O)c1c(C)oc2ccn(Cc3ccc(F)cc3)c(=O)c12`: 868 s.

`Cc1noc2nc(C)n(CC(=O)Nc3ccc(F)cc3)c(=O)c12` returned an RP-LC retention time of 765 s. `C=CCNC(=O)CN1C(=O)C2CCCCN2c2ccc(S(=O)(=O)N(C)C)cc21` (stereo not given) displayed an RP-LC retention time of 774 s.

Consider `COc1cc(NC(=O)N2CCCC(Cn3cnc4cccnc43)C2)cc(OC)c1` (stereo not given), for which the RP-LC retention time came to 682 s.

As for `CC1Cc2ccccc2N1C(=O)CCn1c(=O)sc2ccccc21` (stereo not given), the RP-LC retention time is 923 s.

On to `CN1CCC(NC(=O)c2ccc3c(c2)N(S(=O)(=O)c2ccccc2F)CC3)CC1`, for which the RP-LC retention time was 626 s. As for `O=C(CCCn1c(=O)c2cccn2c2ccccc21)NCc1ccccn1`, the figure is 621 s.

With `O=C(O)c1nnn(-c2cccc(F)c2)c1-c1ccncc1`, the RP-LC retention time was determined as 616 s. As for `Cn1nnc(-c2ccc(-c3ccc(N4C[C@@H](CO)OC4=O)cc3F)cn2)n1`, the RP-LC retention time is 735 s. `COc1ccccc1-c1noc(CN2C(=O)C(C)Oc3ccccc32)n1` (stereo not given) yielded an RP-LC retention time of 944 s. In turn, `CCCN1C(=O)c2c(C(=O)NCc3ccccc3)ncn2CC1(C)C(=O)NC1CCCC1` (stereo not given) came in with an RP-LC retention time of 756 s. `CCN(CC)S(=O)(=O)c1ccc2c(c1)N(CC(=O)NCCN(C)C)C(=O)C1CCCCN21` (stereo not given) registered an RP-LC retention time of 633 s. As for `COc1ccc(CNCCSc2nnnn2C)c(OC)c1`, the figure is 598 s. `O=C(Cn1ccc2c(SCc3ccccc3)nccc21)N1CCN(c2ccc(F)cc2)CC1` had an RP-LC retention time of 786 s. As for `COc1ccccc1N1CCN(CCN2C(=O)CC3(CCCC3)CC2=O)CC1`, the figure is 733 s; as for `Cc1ccc(-n2cc(C3=CCN(CC(=O)NC4CCN(Cc5ccccc5)CC4)CC3)cn2)cc1`, 551 s; as for `Cc1cccn2cc(C(=O)NCc3ccccc3Cl)nc12`, 704 s. `CC(=O)c1cccc(OC(=O)c2cc3c(C)nn(-c4ccccc4)c3s2)c1` came in with an RP-LC retention time of 1310 s. As to `Cc1ccc(-c2[nH]ncc2CN2C[C@@H](CO)[C@H](c3ccncc3)C2)cc1`, the RP-LC retention time turned out to be 604 s. As for `CC(C)C(=O)Nc1cc2c(cc1N(C)C)n(C)c(=O)c(=O)n2C`, the figure is 631 s; as for `Clc1ccccc1-c1nc(N2CCCC2)c2ccccc2n1`, 696 s; as for `CC(=O)Nc1ccc(-n2cnc(C(=O)NCCC3=CCCCC3)c2)nc1`, 739 s. As for `Cc1ccc(NC(=O)N2CC(c3nc(C)no3)C3(CCOCC3)C2)c(C)c1` (stereo not given), the figure is 731 s; as for `CCc1ccc(NC(=O)N2CCC(C(=O)NCc3csc(C)n3)CC2)cc1`, 660 s. As for `CCOc1ccc(N2CC(c3nc(-c4ccc(Cl)cc4)no3)CC2=O)cc1` (stereo not given), the RP-LC retention time worked out at 1080 s.

In turn, `CCS(=O)(=O)Nc1ccc(OCc2nnc(-c3ccccc3)o2)cc1` yielded an RP-LC retention time of 804 s. As for `COCC(=O)Nc1nc(-c2ccc3c(c2)NC(=O)CO3)c(C)s1`, the figure is 705 s. As for `CCOCC(=O)NCc1ccc2c(c1)CCCN2C(=O)C1CCC1`, the figure is 750 s; as for `CCn1c(C(=O)NCc2ccc(OC)cc2)cc2sc(Cl)cc21`, 1130 s; as for `CCN1C(=O)c2cc(S(=O)(=O)Nc3ccc(C)cc3C)ccc2Oc2cccnc21`, 1080 s. Molecule `CCOC(=O)c1ccccc1NC(=O)Cn1nc2ccc(-c3ccc(Cl)cc3)nn2c1=O` came in with an RP-LC retention time of 989 s. As for `Cc1ncccc1C(=O)N1[C@H]2CC[C@@H]1c1cnc(-c3ccc(F)cc3)nc1C2`, the figure is 705 s; as for `COCCO[C@H]1C(=O)N(C2CCN(S(=O)(=O)c3cn(C)cn3)CC2)[C@H]1c1ccncc1`, 556 s; as for `CCCNC(=O)CN1C(=O)CCn2nc(-c3cn(C)c4ccccc34)cc21`, 730 s. `CCOC(=O)Cc1csc(NC(=O)c2cc(=O)c3ccccc3o2)n1` yielded an RP-LC retention time of 754 s. As for `COc1cc(OC)c(NC(=O)Cn2nc3cc(C)nc(-c4ccc(F)cc4)n3c2=O)cc1Cl`, the figure is 899 s; as for `Cc1noc2nc(C)n(CC(=O)Nc3cccc(C(F)(F)F)c3)c(=O)c12`, 879 s; as for `COc1ccc(CNC(=O)N2CCC(c3noc(-c4cnccn4)n3)C2)cc1` (stereo not given), 652 s.

`O=C1CCN(C(=O)C2CCN(C(=O)C3CCC3)CC2)CCCCCCN1` gave an RP-LC retention time of 626 s. On to `CCC1Oc2ccc(S(=O)(=O)N3CCC(C(=O)N4CCN(CC)CC4)CC3)cc2NC1=O` (stereo not given), for which the RP-LC retention time was 573 s. The same measure for `CCN1CCN(c2cc(C(=O)O)c3cc(NS(=O)(=O)c4cc(F)ccc4C)ccc3n2)CC1`: 607 s; for `O=C(C1CCN(c2cc(N3CCCCC3)ncn2)CC1)N1CCSCC1`: 628 s.

Molecule `CCOC(=O)c1c(C)[nH]c(C(=O)N2CCCC(C(=O)NCCC3=CCCCC3)C2)c1C` (stereo not given) yielded an RP-LC retention time of 893 s. In turn, `Cc1ccc2c(c1)N(S(C)(=O)=O)CCC(C(=O)Nc1ccc(C(C)C)cc1)O2` (stereo not given) returned an RP-LC retention time of 1130 s. As for `COc1ccc(C)cc1Nc1ncnc(N)c1[N+](=O)[O-]`, the figure is 780 s; as for `CN(C)C(=O)Cn1c(=O)c2cccn2c2ccc(F)cc21`, 690 s. As for `Cc1cccc(CN2CC=C(C(=O)N3CCN(c4cccc(C)c4)CC3)CC2)c1`, the figure is 706 s; as for `COc1ccc(C)cc1NS(=O)(=O)c1ccc2c(c1)C(=O)N(C)c1ncccc1O2`, 933 s; as for `COc1ccc(-c2noc(C3CC(=O)N(c4cc(Cl)ccc4OC)C3)n2)cc1OC` (stereo not given), 884 s. In turn, `CCNc1nc(C)cc(N2CCN(S(=O)(=O)c3ccc(OC)c(C)c3)CC2)n1` returned an RP-LC retention time of 723 s. As for `COC(=O)c1c(NC(C)c2cccc(OC)c2)c2cccc(Cl)c2[nH]c1=O` (stereo not given), the figure is 843 s; as for `Cc1cccc(N(C)C(=O)C2CCCN2S(=O)(=O)c2cc3c(cc2C)NC(=O)CO3)c1` (stereo not given), 776 s.
